From US8519183B2, “Uses for amino acid anticonvulsants” (Research Corporation Technologies, Inc., priority 2000, dated 2013)
Several values for one entry are separate records, joined by “and”; a condition that tells them apart may be missing. Equal values may be shown once.

What was measured:
[1] = biological target: NMDA receptor (Mus musculus, UniProt P35438); assay: NMDA receptor agonism/antagonism after ICVT administration; conditions: ICVT 1 μg/mouse, N 3
Procedure: Test substance was administered ICVT (intracerebroventricular, 30 μg in 5 μl/mouse). The appearance of convulsions/mortality in 2 or more (≧2) of 3 ICR derived male or female mice weighing 22±2 gms within the 5 minutes thereafter would indicate NMDA receptor agonism. At a dose where no significant agonist activity was seen within 5 minutes, ability to inhibit NMDA (60 mg/kg IV)—induced Tonic convulsions/mortality in 2 or more (≧2) of 3 ICR derived male or female mice weighing 22±gms within the following 5 minutes indicated NMDA receptor antagonist activity.

[2] = biological target: T1, serotonin 5-HT1A receptor (Rattus norvegicus, UniProt P19327); assay: 5-MeODMT-induced head twitch; type: in vivo, rats; conditions: 10 mg/kg PO, 3 rats
T1 construct: from tissue; host or cells: living Long Evans derived rat (in vivo)
T1 sequence (P19327 1-422): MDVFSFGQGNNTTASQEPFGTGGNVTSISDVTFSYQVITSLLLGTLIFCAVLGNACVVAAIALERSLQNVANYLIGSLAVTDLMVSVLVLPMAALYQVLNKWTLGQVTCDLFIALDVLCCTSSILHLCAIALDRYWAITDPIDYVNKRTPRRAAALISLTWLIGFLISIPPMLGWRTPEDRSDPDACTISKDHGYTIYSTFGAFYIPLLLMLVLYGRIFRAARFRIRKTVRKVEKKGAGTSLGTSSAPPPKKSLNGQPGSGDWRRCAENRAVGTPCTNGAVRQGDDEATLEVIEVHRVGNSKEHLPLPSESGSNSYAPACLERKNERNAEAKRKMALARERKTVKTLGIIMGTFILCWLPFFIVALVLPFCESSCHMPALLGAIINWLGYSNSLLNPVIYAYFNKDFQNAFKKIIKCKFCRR
Procedure: Test substance was administered PO (30 mg/kg) to a group of 3 Long Evans derived male or female rats weighing 150±20 gms one hour before injection of 5-MeODMT (5-methoxy-N,N-dimethyltryptamine, 3 mg/kg IP).

[3] = system: ICR derived male or female mice; assay: Analgesia, Acetic Acid Writhing; type: in vivo; conditions: 100 mg/kg PO
From the text: In the first animal study in Example 1, the degree of pain experienced by the mice after injection by acetic acid is seen by the number of writhes. If the mice experience no pain, there is no writhing.
The protocol is based on the acetic acid writhing test in mice, developed by R. Koster, et al. Fed. Proc, 18, 412 […], and referred to a Koster test and Hunskarai, S., et al., J. Neuroscience Meth. 14: 69-76, 1985.
Reduction in the number of writhes by 50 percent or more (≧50%) per group of animals observed during the 5 to 10 minute period after acetic acid administration, relative to a vehicle treated control group, indicated analgesic activity.

[4] = system: ICR derived male or female mice; assay: formalin induced hind paw licking; type: in vivo; conditions: 300 mg/kg PO
Procedure: The degree of pain is determined by measuring the decrease in the amount of time the animal spends licking the formalin-injected paw after administration of the drug.
Reduction of the induced hind paw licking time recorded during the following 20 to 30 minutes period by 50 percent or more (50%) indicated analgesic activity.

[5] = system: male ICR mice; assay: radiant heat induced tail flick response; type: in vivo
Procedure: Groups of 4 male ICR mice weighing 22±2 gms were employed. A dose (30 mg/kg) of test compound dissolved in a vehicle of saline was administered intraperitoneally. The control group received vehicle alone. At pretreatment (0 minute) a focused beam of radiant heat was applied to the middle dorsal surface of the tail to elicit a tail flick response within 6-7.5 seconds in pre-treated animals. A maximum cut-off time of 15 seconds was set. The time required to elicit a pain response was recorded for each animal at 0 and 30 minutes following administration of test compound. Prolongation by 50 percent or more (≧50%) of the time required to elicit a tail flick indicated analgesic activity.

[6] = system: Sprague Dawley male rats; assay: Chung model of neuropathy, tactile threshold (von Frey hairs); type: in vivo
Procedure: Sprague Dawley male rats weighing 275 to 325 grams was used in this experiment. In this experiment, the response to neuropathic pain was determined. The neuropathic preparation used to induce an allodynic state is the surgical procedure described by Kim and Chung in Pain, 1992, 50, 355-363 (1992) and outlined in Chaplain, et al. in J. Neurosci. Meth., 1994, 53, […]. Briefly, the left L5 and L6 spinal nerves were isolated adjacent to the vertebral column and ligated with 6-0 silk suture distal to the dorsal root ganglion under isoflurane anesthesia. The rats were allowed a minimum 7 day postoperative recovery period before placement in the study.
Testing groups consisted of 6 rats per group. Each group received test article, (2R)-2-acetyl-amino)-N-[(4-fluorophenyl)methyl]-3-methoxypropanamide (hereinafter “test article”), in one of three concentrations delivered intraperitoneally; the high concentration was 50 mg/kg, the medium concentration was 30 mg/kg and the low concentration was 20 mg/kg. One group of 6 rats received saline control solution at a volume equal to that used for test article.
To assess tactile thresholds, rats were placed in a clear plastic, wire mesh-bottomed cage, divided into individual compartments. Animals were allowed to accommodate and then baseline thresholds were taken prior to drug treatment. To determine the 50% mechanical threshold for paw withdrawal, von Frey hairs were applied to the plantar mid-hindpaw, avoiding the tori (footpads). The eight von Frey hairs used are designated by [log(10*force required to bend hair, mg)] and range from 0.4-15.1 grams. Each hair was pressed perpendicularly against the paw with sufficient force to cause slight bending, and held for approximately 6-8 seconds. […] Stimuli were presented successively until either six data points were collected, or the maximum or minimum stimulus was reached. […] If a change in response occurred, either “−” to “+” or “+” to “−”, causing a change in the direction of stimulus presentation from descending to ascending or vice-versa, four additional data points were collected subsequent to the change. The resulting pattern of responses were tabulated and the 50% response threshold computer using the formula: log(threshold, mg×10)=Xf+kh
wherein: • Xf=value of the last von Frey hair applied; • k=correction factor based on response pattern (from calibration table) • h=mean distance in log units between stimuli.
Based on observations on normal, —operated rats and sham-operated rats, the cutoff of a 15.1-g hair is selected as the upper limit for testing.
The test was performed to establish an average baseline value, counted as time 0; then again at 15, 30, 60, 120 and 240 minutes after the dosing by the control saline solution or the test article.

[7] = system: Sprague Dawley male rats; assay: general behavioral assessment at intraperitoneal doses of 30 to 100 mg/kg; type: in vivo
From the text: General behavioral assessments were made during each period of observation and include: tactile allodynia (vocalization/agitation induced by light touch applied to the body surface), spontaneous vocalization, biting and chewing of body surface, loss of hind limb placing and stepping reflex, loss of hind limb weight bearing, and loss of righting reflex. All assessments, were noted as “present”, “absent” or ranked according to a graded scale.
Four rats were examined at intraperitoneal (IP) doses of 30 to 100 mg/kg.

[8] = system: Holtzman male rats; assay: NMDA Induced Hyperalgesia (thermal escape latency); type: in vivo
Procedure: Holtzman male rats weighing 275 to 325 grams were prepared with lumbar intrathecal catheters under isoflurane anesthesia. The catheters were externalized on the back of the head. Four to five days after implant, the animals were employed.
NMDA administration was accomplished using a gear driven microinjection syringe connected to the spinal catheter by a length of calibrated PE-90 tubing. The catheter plug was immediately replaced to avoid back flow and the rat was replaced in its testing box.
A modified Hargreaves box was used which allows the direction of a focused light beam on the underface of the paw through a glass surface upon which the rat stands. Surface temperature was maintained at 30° C. Withdrawal of the paw was taken as the response. Lack of response within twenty seconds was cause to terminate the test and assign that score.
The rats were placed on the thermal escape box and allowed to acclimate for 30 minutes prior to testing. A measurement was taken for each hindpaw to establish an average baseline latency (counted as time=0). (2R)-2-(acetylamino)-N-[(4-fluorophenyl)methyl]-3-methoxypropanamide solution, that is, test product in this experiment, was given at an intrathecal dose of 1 μg/10 μl 10 minutes prior to intrathecal NMDA. A control group was given an identical amount of saline 10 minutes prior to intrathecal NMDA. Measurements were then made at 15, 30, 60, 120, 240 and 360 minutes after intrathecal NMDA injection. General behavior assessments were made during each period of observation and include: tactile allodynia (vocalization/agitation induced by light touch applied to the body surface), spontaneous vocalization, biting and chewing of body surface, loss of hind limb placing and stepping reflex, loss of hind limb weight bearing and loss of righting reflex.

## CN[C@H](CC(=O)O)C(=O)O [NMDA, N-methyl-D-aspartate, reference compound]
[1]
  Agonism (mice with convulsions/mortality within 5 minutes): 3

## CN1C(=O)CN=C(c2ccccc2)c2cc(Cl)ccc21 [Diazepam, reference compound]
[2]
  Head Twitch, Ave.: 2

## CC(=O)Oc1ccccc1C(=O)O [Aspirin, reference compound]
[3]; group of 3 mice
  No. of Writhes, X ± SEM: X ± SEM 0 ± 0
[3]; one hour before acetic acid, 5 to 10 minute period
  No. of Writhes (individual animal): 0
[3]; relative to vehicle control
  % Inh.: 100%
[4]
  % Inh.: 72%
[4]; 5 mice
  Licking Time, Ave.: 36 s

## CN1CC[C@]23c4c5ccc(O)c4O[C@H]2[C@@H](O)C=C[C@H]3[C@H]1C5 [Morphine, reference compound]
[5]; 10 mg/kg IP
  % Inh.: 100%
[5]; 10 mg/kg IP, 30 minutes after administration, cut-off 15 seconds
  Response Time 30 Min. (individual animal): >15
[5]; 10 mg/kg IP, mean of 4 mice
  Response Time 30 Min., X: 15.0
[5]; 10 mg/kg IP, mean of 4 mice, pretreatment
  Response Time 0 Min., X: 6.9
[5]; 10 mg/kg IP, pretreatment (0 minute)
  Response Time 0 Min. (individual animal): 7.4 (2×) and 6.5 and 6.4
[5]; morphine control
  radiant heat induced tail flick response (in words): positive response

## COC[C@@H](NC(C)=O)C(=O)NCc1ccc(F)cc1 [test article, (2R)-2-(acetylamino)-N-[(4-fluorophenyl)methyl]-3-methoxypropanamide]
[6]; 15 mg/kg, previous study
  effect on the Chung Model (in words): no effect
[6]; 20 mg (per kg) IP, 6 rats
  tactile threshold after dosing (increase from approximately 2): ~5 grams
[6]; 30 mg IP, for approximately 1 hour
  rats appearing sedated: Four of 6
[6]; 30 mg/kg IP, 6 rats
  tactile threshold after dosing (increase from approximately 2): ~5 grams
[6]; 50 mg/kg IP, 6 rats
  tactile threshold after dosing (increase from 2): 11 grams
[6]; 50 mg/kg IP, for approximately 1 hour post injection
  rats appearing sedated: 6 of 6
[6]; IP, Chung Model
  duration of effect after injection: approximately 2 hours
[6]; delivered intraperitoneally
  reversal of tactile allodynia (in words): significant reversal of tactile allodynia
[7]; 30 mg/kg IP, one rat
  behavioral observation: no behavioral deficit
[7]; 50 mg/kg IP, one rat, lasted 60 minutes
  behavioral observation: slightly catatonic
[7]; 60 mg/kg IP, one rat, within 15 minutes, severe exopthalmos, euthanized
  behavioral observation: catatonic and displayed abnormal ambulation
[7]; 90 mg/kg IP, one rat, within 15 minutes, flaccid, severe exopthalmos, euthanized
  behavioral observation: catatonic and unable to right itself
[7]; 100 mg/kg IP, one rat, within 15 minutes, euthanized
  behavioral observation: laterally recumbent displaying seizures and bleeding from the nose
[7]; Fifteen mg/kg, previously shown
  behavioral observation: no observable affect
[8]; intrathecal 1 μg/10 μl 10 minutes prior to intrathecal NMDA, out to 20 minutes post NMDA injection, n=2
  thermal escape latency, baseline maintained: about 14 second
[8]; intrathecal 1 μg/10 μl, later than 20 minutes post NMDA injection, n=2
  thermal escape latency after dropping: approximately 10 seconds
[8]; preliminary data
  anti-hyperalgesic action in NMDA induced thermal hyperalgesia (in words): measurable anti-hyperalgesic actions
